Results taken from ChEMBL document CHEMBL1201862, “PubChem BioAssay data set” (2004).
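48-hour exposure; five concentrations; linearly interpolated endpoints. GI50 = concentration required for 50% inhibition of growth.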 Activity calls are given as the source filed them. No stated cut-off is given here; in the data, active = GI50 up to about 1.1 µM and inactive = higher.

What was measured:
Assay in all cases: NCI tumour cell line growth inhibition, 48 h
PC-3 = test system: PC-3
SK-OV-3 = test system: SK-OV-3
NCI-H460 = test system: NCI-H460
Hs-578T = test system: Hs-578T
Malme-3M = test system: Malme-3M
SN12C = test system: SN12C
COLO 205 = test system: COLO 205
HCT-116 = test system: HCT-116
ACHN = test system: ACHN
LOX IMVI = test system: LOX IMVI
NCI-H522 = test system: NCI-H522
UO-31 = test system: UO-31
RPMI-8226 = test system: RPMI-8226
K562 = test system: K562
MCF7 = test system: MCF7
CCRF-CEM = test system: CCRF-CEM
DU-145 = test system: DU-145
NCI/ADR-RES = test system: NCI/ADR-RES
SF-539 = test system: SF-539
786-0 = test system: 786-0

Row | Compound | GI50 (PC-3) | GI50 (SK-OV-3) | GI50 (NCI-H460) | GI50 (Hs-578T) | GI50 (Malme-3M) | GI50 (SN12C) | GI50 (COLO 205) | GI50 (HCT-116) | GI50 (ACHN) | GI50 (LOX IMVI) | GI50 (NCI-H522) | GI50 (UO-31) | GI50 (RPMI-8226) | GI50 (K562) | GI50 (MCF7) | GI50 (CCRF-CEM) | GI50 (DU-145) | GI50 (NCI/ADR-RES) | GI50 (SF-539) | GI50 (786-0)
1 | COc1cc2c(cc1OC)[C@H](C)N1CCc3cc(OC)c(OC)cc3[C@@H]1C2 | > 100 µM (inactive) | > 100 µM (inactive) | > 100 µM (inactive) | > 100 µM (inactive) | > 100 µM (inactive) | > 100 µM (inactive) | > 100 µM (inactive) | > 100 µM (inactive) | > 100 µM (inactive) | > 100 µM (inactive) | > 100 µM (inactive) | > 100 µM (inactive) | > 100 µM (inactive) | > 100 µM (inactive) | > 100 µM (inactive) | > 100 µM (inactive) | > 100 µM (inactive) | > 100 µM (inactive) | > 100 µM (inactive) | > 100 µM (inactive)
2 | CCCCSc1nsc(N(C(=O)c2ccccc2)C(=O)c2ccccc2)n1 | 33.5 µM (inactive) | 31.4 µM (inactive) | 27.5 µM (inactive) | 31.2 µM (inactive) | 26.9 µM (inactive) | 29.2 µM (inactive) | 20.4 µM (inactive) | 28.8 µM (inactive) | 49.1 µM (inactive) | 26.9 µM (inactive) | 25.4 µM (inactive) | 19.5 µM (inactive) | 21.6 µM (inactive) | 29.7 µM (inactive) | 32.2 µM (inactive) | 35.8 µM (inactive) | 33.8 µM (inactive) | 31.6 µM (inactive) | 25.1 µM (inactive) | 32 µM (inactive)
3 | Clc1ccc(-c2cc(-c3cc4cc(Br)ccc4nc3Cl)on2)cc1 | 16.5 µM (inactive) | 18.9 µM (inactive) | 10.1 µM (inactive) | 22.8 µM (inactive) | 18.8 µM (inactive) | 16.1 µM (inactive) | 8.28 µM (inactive) | 12.2 µM (inactive) | 13.8 µM (inactive) | 10 µM (inactive) | 10.2 µM (inactive) | 17.3 µM (inactive) | 15.4 µM (inactive) | 15.1 µM (inactive) | 13.1 µM (inactive) | 11.5 µM (inactive) | 18.8 µM (inactive) | 14.9 µM (inactive) | 9.08 µM (inactive) | 18.9 µM (inactive)
4 | CN(C)CCCNc1ccc2c(=O)n(CCN(C)C)c(=O)n3c4ccccc4c(=O)c1c23 | 0.258 µM (active) | 0.582 µM (active) | 0.0335 µM (active) | 1.49 µM (inactive) | 0.286 µM (active) | 0.103 µM (active) | 0.127 µM (active) | 0.0752 µM (active) | 0.0752 µM (active) | 0.144 µM (active) | 0.101 µM (active) | 0.355 µM (active) | 0.129 µM (active) | 0.0512 µM (active) | 0.0885 µM (active) | 0.132 µM (active) | 0.124 µM (active) | 0.396 µM (active) | 0.486 µM (active) | 0.0419 µM (active)
5 | Cc1cc(NS(=O)(=O)c2ccc(NC(=O)c3ccc4nc5ccccc5c(Nc5ccc(S(=O)(=O)Nc6cc(C)on6)cc5)c4c3)cc2)no1 | > 50 µM (inactive) | > 50 µM (inactive) | > 50 µM (inactive) | > 50 µM (inactive) | > 50 µM (inactive) | > 50 µM (inactive) | > 50 µM (inactive) | > 50 µM (inactive) | > 50 µM (inactive) | > 50 µM (inactive) | > 50 µM (inactive) | > 50 µM (inactive) | > 50 µM (inactive) | > 50 µM (inactive) | > 50 µM (inactive) | > 50 µM (inactive) | > 50 µM (inactive) | > 50 µM (inactive) | > 50 µM (inactive) | > 50 µM (inactive)
6 | C/C=C\C1OC1(C)c1cc(=O)c2c(C)cc3c(c2o1)C(=O)c1c(O)c(C2CC(C)(N(C)C)C(OC(C)=O)C(C)O2)cc(C2CC(N(C)C)C(O)C(C)O2)c1C3=O (stereo not given) | 0.00405 µM (active) | 0.00432 µM (active) | < 0.00375 µM (active) | 0.00766 µM (active) | 0.0124 µM (active) | < 0.00375 µM (active) | < 0.00375 µM (active) | < 0.00375 µM (active) | < 0.00375 µM (active) | < 0.00375 µM (active) | < 0.00375 µM (active) | 0.00509 µM (active) | < 0.00375 µM (active) | < 0.00375 µM (active) | < 0.00375 µM (active) | < 0.00375 µM (active) | 0.00405 µM (active) | 0.00409 µM (active) | 0.00433 µM (active) | < 0.00375 µM (active)
7 | O=C1CSC2(CC(/C=C/c3cccc(Br)c3)=NN2c2cccc(S(=O)(=O)O)c2)N1c1nc2ccccc2s1 (stereo not given) | > 100 µM (inactive) | > 100 µM (inactive) | > 100 µM (inactive) | > 100 µM (inactive) | > 100 µM (inactive) | > 100 µM (inactive) | > 100 µM (inactive) | > 100 µM (inactive) | > 100 µM (inactive) | > 82.6 µM (inactive) | 58.5 µM (inactive) | > 96.6 µM (inactive) | 25.5 µM (inactive) | 42.8 µM (inactive) | 65.6 µM (inactive) | 20 µM (inactive) | > 100 µM (inactive) | > 100 µM (inactive) | > 100 µM (inactive) | > 100 µM (inactive)
8 | O=C1c2ccccc2-c2ccc(NC(=O)C3CCCCC3C(=O)O)cc21 (stereo not given) | > 100 µM (inactive) | > 100 µM (inactive) | > 100 µM (inactive) | > 100 µM (inactive) | > 100 µM (inactive) | 96.4 µM (inactive) | > 100 µM (inactive) | > 100 µM (inactive) | > 100 µM (inactive) | > 100 µM (inactive) | > 100 µM (inactive) | > 100 µM (inactive) | > 100 µM (inactive) | > 100 µM (inactive) | 85.5 µM (inactive) | > 100 µM (inactive) | > 100 µM (inactive) | > 100 µM (inactive) | > 100 µM (inactive) | > 100 µM (inactive)
9 | O=C1C=CC(=O)C(CNc2ccc(C(=O)OC34CC5CC(CC(C5)C3)C4)cc2)=C1 | 6.07 µM (inactive) | 20 µM (inactive) | 15.2 µM (inactive) | 2.38 µM (inactive) | 4.58 µM (inactive) | 11.3 µM (inactive) | 2.04 µM (inactive) | 10 µM (inactive) | 6.28 µM (inactive) | 4.57 µM (inactive) | 0.776 µM (active) | 4.24 µM (inactive) | 1.93 µM (inactive) | 4.52 µM (inactive) | 3.43 µM (inactive) | 1.34 µM (inactive) | 19.4 µM (inactive) | 3.44 µM (inactive) | 2.49 µM (inactive) | 10.3 µM (inactive)
10 | CN(C)CC1COC2Cc3ccccc3C1O2 (stereo not given) | > 100 µM (inactive) | > 100 µM (inactive) | > 100 µM (inactive) | > 100 µM (inactive) | > 100 µM (inactive) | > 100 µM (inactive) | > 100 µM (inactive) | > 100 µM (inactive) | > 100 µM (inactive) | > 100 µM (inactive) | > 100 µM (inactive) | > 100 µM (inactive) | > 100 µM (inactive) | > 100 µM (inactive) | > 100 µM (inactive) | > 100 µM (inactive) | > 100 µM (inactive) | > 100 µM (inactive) | > 100 µM (inactive) | > 100 µM (inactive)
11 | CC(C)[Si](OC/C(=C/COC(C)(C)C)[C@H]1CC=C(C(=O)c2ccccc2N2CN(C)C(=O)N(C)C2)C1)(C(C)C)C(C)C | 5.6 µM (inactive) | 15.6 µM (inactive) | 12.6 µM (inactive) | 2.6 µM (inactive) | 7.94 µM (inactive) | 12.4 µM (inactive) | 15.7 µM (inactive) | 2.3 µM (inactive) | 14.7 µM (inactive) | 2.07 µM (inactive) | 7.41 µM (inactive) | 11.1 µM (inactive) | 6.05 µM (inactive) | 1.08 µM (active) | 4.47 µM (inactive) | 3.1 µM (inactive) | 13.5 µM (inactive) | 16.4 µM (inactive) | 6.78 µM (inactive) | 6.61 µM (inactive)
